According to PubChem BioAssay (NCI):
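Step 1: Grow cells in 96-well plates. Step 2: Expose to compound for 48 hours at 5 concentrations. Step 3: Interpolate endpoints linearly; if unreached, use highest concentration. TGI is the concentration that stops growth completely.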

Assays:
Assay in all cases: NCI tumour cell line growth inhibition, 48 h
[1] = tested on: NCI-H226 lung
[2] = tested on: OVCAR-8 ovarian
[3] = tested on: SN12C renal
[4] = tested on: RXF 393 renal
[5] = tested on: UO-31 renal
[6] = tested on: HT29 colon
[7] = tested on: DU-145 prostate
[8] = tested on: NCI-H23 lung
[9] = tested on: HCT-15 colon
[10] = tested on: COLO 205 colon
[11] = tested on: NCI-H522 lung
[12] = tested on: KM12 colon
[13] = tested on: PC-3 prostate
[14] = tested on: U251 CNS
[15] = tested on: NCI/ADR-RES ovarian
[16] = tested on: A498 renal
[17] = tested on: T-47D breast
[18] = tested on: MDA-MB-231 breast
[19] = tested on: MDA-N
[20] = tested on: HCT-116 colon
[21] = tested on: OVCAR-4 ovarian
[22] = tested on: NCI-H460 lung
[23] = tested on: CCRF-CEM leukemia
[24] = tested on: SW-620 colon
[25] = tested on: TK-10 renal
[26] = tested on: SK-MEL-28 melanoma
[27] = tested on: HCC-2998 colon
[28] = tested on: MDA-MB-435
[29] = tested on: MCF7 breast
[30] = tested on: OVCAR-3 ovarian
[31] = tested on: UACC-257 melanoma
[32] = tested on: SNB-19 CNS
[33] = tested on: HOP-92 NSCLC
[34] = tested on: HS 578T breast
[35] = tested on: ACHN renal
[36] = tested on: SR leukemia
[37] = tested on: M14 melanoma
[38] = tested on: SNB-75 CNS
[39] = tested on: SK-MEL-5 melanoma
[40] = tested on: K-562 leukemia
[41] = tested on: SF-268 CNS
[42] = tested on: SF-295 CNS
[43] = tested on: MOLT-4 leukemia
[44] = tested on: A549 NSCLC
[45] = tested on: MALME-3M melanoma
[46] = tested on: CAKI-1 renal
[47] = tested on: RPMI-8226 leukemia
[48] = tested on: SK-MEL-2 melanoma
[49] = tested on: 786-0 renal
[50] = tested on: SK-OV-3 ovarian
[51] = tested on: EKVX NSCLC
[52] = tested on: IGROV1 ovarian
[53] = tested on: LOX IMVI melanoma
[54] = tested on: HOP-62 NSCLC
[55] = tested on: OVCAR-5 ovarian
[56] = tested on: HL-60(TB) leukemia
[57] = tested on: UACC-62 melanoma
[58] = tested on: SF-539 CNS

Structure (SMILES): Cc1ccc(S(=O)(=O)N2CCCN(S(=O)(=O)c3ccc(C)cc3)CC2)cc1
- TGI [1]: > 100 µM
- TGI [2]: > 100 µM
- TGI [3]: > 100 µM
- TGI [4]: > 100 µM
- TGI [5]: > 100 µM
- TGI [6]: > 100 µM
- TGI [7]: > 100 µM
- TGI [8]: > 100 µM
- TGI [9]: > 100 µM
- TGI [10]: > 100 µM
- TGI [11]: > 100 µM
- TGI [12]: > 100 µM
- TGI [13]: > 100 µM
- TGI [14]: > 100 µM
- TGI [15]: > 100 µM
- TGI [16]: 69.2 µM
- TGI [17]: > 100 µM
- TGI [18]: > 100 µM
- TGI [19]: > 100 µM
- TGI [20]: > 100 µM
- TGI [21]: > 100 µM
- TGI [22]: > 100 µM
- TGI [23]: > 100 µM
- TGI [24]: > 100 µM
- TGI [25]: > 100 µM
- TGI [26]: > 100 µM
- TGI [27]: > 100 µM
- TGI [28]: > 100 µM
- TGI [29]: > 100 µM
- TGI [30]: > 100 µM
- TGI [31]: > 100 µM
- TGI [32]: > 100 µM
- TGI [33]: > 100 µM
- TGI [34]: > 100 µM
- TGI [35]: > 100 µM
- TGI [36]: > 100 µM
- TGI [37]: > 100 µM
- TGI [38]: > 100 µM
- TGI [39]: > 100 µM
- TGI [40]: > 100 µM
- TGI [41]: > 100 µM
- TGI [42]: > 100 µM
- TGI [43]: > 100 µM

Structure (SMILES): c1ccc(C[n+]2ccc3c(c2)CCCC3)cc1
- TGI [1]: > 100 µM
- TGI [2]: > 100 µM
- TGI [3]: > 100 µM
- TGI [44]: > 100 µM
- TGI [4]: > 100 µM
- TGI [5]: > 100 µM
- TGI [6]: > 100 µM
- TGI [7]: > 100 µM
- TGI [8]: > 100 µM
- TGI [45]: > 100 µM
- TGI [46]: > 100 µM
- TGI [9]: > 100 µM
- TGI [10]: > 100 µM
- TGI [12]: > 100 µM
- TGI [13]: > 100 µM
- TGI [14]: > 100 µM
- TGI [15]: > 100 µM
- TGI [17]: > 100 µM
- TGI [18]: > 100 µM
- TGI [19]: > 100 µM
- TGI [47]: > 100 µM
- TGI [20]: > 100 µM
- TGI [21]: > 100 µM
- TGI [22]: > 100 µM
- TGI [23]: > 100 µM
- TGI [48]: > 100 µM
- TGI [24]: > 100 µM
- TGI [25]: > 100 µM
- TGI [26]: > 100 µM
- TGI [27]: > 100 µM
- TGI [28]: > 100 µM
- TGI [29]: > 100 µM
- TGI [30]: > 100 µM
- TGI [49]: > 100 µM
- TGI [31]: > 100 µM
- TGI [50]: > 100 µM
- TGI [32]: > 100 µM
- TGI [33]: > 100 µM
- TGI [34]: > 100 µM
- TGI [51]: 85.8 µM
- TGI [35]: > 100 µM
- TGI [52]: > 100 µM
- TGI [36]: > 100 µM
- TGI [53]: > 100 µM
- TGI [37]: > 100 µM
- TGI [54]: > 100 µM
- TGI [55]: > 100 µM
- TGI [38]: > 100 µM
- TGI [56]: > 100 µM
- TGI [39]: > 100 µM
- TGI [57]: > 100 µM
- TGI [58]: > 100 µM
- TGI [40]: > 100 µM
- TGI [41]: > 100 µM
- TGI [42]: > 100 µM
- TGI [43]: > 100 µM

Structure (SMILES): CN1CCN(Cn2nc(COc3ccc(Cl)cc3)n(/N=C/c3ccc(-c4ccc(Cl)cc4Cl)o3)c2=S)CC1
- TGI [1]: 49.2 µM
- TGI [2]: 18.7 µM
- TGI [4]: 7.13 µM
- TGI [5]: 32.6 µM
- TGI [6]: 15.4 µM
- TGI [7]: 25 µM
- TGI [46]: 28.3 µM
- TGI [9]: 36.9 µM
- TGI [11]: 10.2 µM
- TGI [12]: 11 µM
- TGI [13]: 23.5 µM
- TGI [14]: 23.1 µM
- TGI [15]: 38.9 µM
- TGI [16]: 32.6 µM
- TGI [17]: 46.3 µM
- TGI [18]: 22 µM
- TGI [19]: 14.1 µM
- TGI [20]: 26.2 µM
- TGI [21]: 10.5 µM
- TGI [22]: 34.3 µM
- TGI [23]: 17.3 µM
- TGI [48]: 41 µM
- TGI [24]: 19 µM
- TGI [25]: 30.6 µM
- TGI [26]: 28.2 µM
- TGI [27]: 7.72 µM
- TGI [28]: 8.02 µM
- TGI [29]: 36.7 µM
- TGI [30]: 30.6 µM
- TGI [49]: 17 µM
- TGI [31]: 36.7 µM
- TGI [50]: 30.2 µM
- TGI [33]: 22.7 µM
- TGI [34]: 23.8 µM
- TGI [51]: 37.7 µM
- TGI [35]: 33.9 µM
- TGI [52]: 24 µM
- TGI [36]: 14.8 µM
- TGI [53]: 24.1 µM
- TGI [54]: 16.8 µM
- TGI [55]: 33.2 µM
- TGI [39]: 35.5 µM
- TGI [58]: 72.3 µM
- TGI [40]: > 100 µM
- TGI [41]: 21.3 µM
- TGI [42]: 27.8 µM
- TGI [43]: 41.1 µM
